Source: US5182289A, “Heterobicyclic compounds having antiinflammatory activity” (Schering Corporation, priority 1990, dated 1993)
Like-named read-outs stand apart in the source and are kept apart here.

Legend:
[1] = test system: Reversed Passive Arthus Reaction (RPAR) in the pleural cavity; assay: Reversed Passive Arthus Reaction (RPAR) in the pleural cavity: cells and fluid; assay type: in vivo, male rats; conditions: Rattus norvegicus, 4 h; for inhibition in vivo at 40 mg/kg: dose 40 mpk; for inhibition in vivo at 25 mg/kg: dose 25 mpk
Description: (§1) Reversed Passive Arthus Reaction (RPAR) Assay
(§2) Groups of 4 male rats were injected in the penile vein with antigen (1 mg BSA in 0.2 mL of saline per rat) and 0.5 hour later injected in the pleural cavity with antibody (1.0 mg antibody protein in the IgG fraction of rabbit anti-BSA in 0.2 mL). […] After 4 hours the animals were killed with CO2, and the pleural cavities were opened and the exudate drained into a graduated conical glass centrifuge tube containing indomethacin (1.8 ug) and nordihydroguaiaretic acid (NDGA) (15 ug) to block ex vivo metabolite synthesis. The volume of the exudate was measured. The cavity was then washed out with saline-EDTA to achieve a final volume of 5.0 mL. The number of cells were determined in a Colulter Counter. The cells were spun-down (1000×g) and the exudate supernatant was added to 4 volumes of 95% ethanol and samples were kept on ice for 30 minutes. After removal of the protein precipitate (2,500×g) the ethanol extract of the exudate was dried under N2 and then stored at -20° C. For radioimmunoassay (RIA) analysis the samples were redissolved in water to a volume of 1 mL per rat. Utilizing internally spiked samples, recovery of TXB2 (tritiated thromboxane B2) and LTE4 (tritiated leukotriene-E4) from exudates was determined to be 84±2% (SEM) and 89±2% (N=4), respectively. Exudate samples were directly assayed in duplicate with the commercial ^3 H-TXB2 RIA kit from New England Nuclear and the ^3 H-LTC4 /D4 /E4 kit from Amersham. The assay was validated using reversed-phase HPLC analysis of LTs in the standard procedure described by M. W. Musch, R. W. Bryant, C. Coscollaela, R. F. Myers and M. I. Siegel, Prostaglandins, Vol. 29, pp 405-430 (1985). Samples of ethanol exudate extract were "spiked" with ^3 H-LTs to follow HPLC purification and recovery.

[2] = test system: 5-LO; assay: Reversed Passive Arthus Reaction (RPAR) in the pleural cavity: LTE-4 in exudate; assay type: in vivo, male rats
Description: as §1, §2

[3] = test system: CO (cyclooxygenase); assay: Reversed Passive Arthus Reaction (RPAR) in the pleural cavity: TXB-2 in exudate; assay type: in vivo, male rats
Description: as §1, §2

[4] = target: T1, 5-lipoxygenase (Homo sapiens, UniProt P09917); assay: 5-Lipoxygenase Assay in human polymorphonuclear (PMN) leukocytes, 5-HETE production; assay type: cell-based
T1 construct: Human polymorphonuclear (PMN) leukocytes (neutrophils) are obtained from normal healthy volunteers; endogenous in cells; host or cells: human polymorphonuclear leukocytes (neutrophils) from blood of healthy volunteers
T1 sequence (P09917 1-674): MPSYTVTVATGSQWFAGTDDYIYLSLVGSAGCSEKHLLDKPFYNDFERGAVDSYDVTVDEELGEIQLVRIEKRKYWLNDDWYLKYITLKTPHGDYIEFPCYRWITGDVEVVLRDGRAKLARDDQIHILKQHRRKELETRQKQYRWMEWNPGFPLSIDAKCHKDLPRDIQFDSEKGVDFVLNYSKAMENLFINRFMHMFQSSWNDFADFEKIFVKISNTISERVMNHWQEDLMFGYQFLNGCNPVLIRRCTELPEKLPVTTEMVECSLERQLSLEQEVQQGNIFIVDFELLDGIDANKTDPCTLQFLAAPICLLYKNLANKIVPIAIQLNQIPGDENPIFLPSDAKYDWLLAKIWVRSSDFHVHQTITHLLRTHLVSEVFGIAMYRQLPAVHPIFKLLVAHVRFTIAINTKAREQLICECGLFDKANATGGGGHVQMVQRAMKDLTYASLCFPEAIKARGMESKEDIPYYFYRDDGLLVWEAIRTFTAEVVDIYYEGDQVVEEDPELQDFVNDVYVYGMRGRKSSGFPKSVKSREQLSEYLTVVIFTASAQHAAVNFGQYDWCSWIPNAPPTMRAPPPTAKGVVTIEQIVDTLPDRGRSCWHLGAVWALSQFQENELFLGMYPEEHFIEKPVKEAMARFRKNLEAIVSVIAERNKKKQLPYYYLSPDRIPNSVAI
Description: Human polymorphonuclear (PMN) leukocytes (neutrophils) are obtained from normal healthy volunteers by venipuncture and collected with heparin anticoagulant. Neutrophils are isolated by Dextran/Ficol sedimentation as described (Billah et al, J. Biol. Chem. 260, 6899-6906 (1985)). In brief, 30 ml of blood is mixed with 5 ml of dextran (Sigma) solution and kept at 37° C. for 30 min. The upper white cellrich layer is removed and 10 ml is layered on 9 ml of Ficol-Paque solution (Pharmacia) and centrifuged at 280×g for 10 min. at 5° C. The supernatant is removed and the neutrophil pellet is resuspended in HEPES buffer containing 25 mM N-2-hydroxyethylpiperazine-N^1 -2 ethanesulfonic acid(HEPES), 125 mM NaCl, 2.5 mM KCL, 0.7 mM MgCl2, 0.5 mM and 10 mM glucose at pH 7.4. The red cells in the suspension are lysed by hypotonic shock. The neutrophils are washed by centrifugation in HEPES buffer two times and finally resuspended at a concentration of 20×10^6 cells/ml in the presence of 1 mM CaCl2.
Neutrophils (0.2 ml of suspension) are preincubated with dimethylsulfoxide (DMSO) vehicle with or without test compound (1 ul) for 4 minutes then incubated for 5 minutes with ^14 C-arachidonic acid (Amersham, 59 Ci/mole) at a 9 uM final concentration, and the calcium ionophore A23187 (Calbiochem) at a 1 uM final concentration. These stimulants are added in 10 ul of water:ethanol (9:1). The reaction is stopped by addition of methanol (0.4 ml), and cellular debris is removed by centrifugation. Aliquots (100 ul) of the incubations are run on a Waters two pump high performance liquid chromatography (HPLC) system fitted with a DuPont Zorbax ODS, 5 u, 4×80 […] Reliance Cartridge column and C18 "Guard Pak". The column is initially eluted at 2 ml/min with 80 percent of the mixture water:methanol:acetic acid (46:54:0.08) containing 1 mM EDTA adjusted to pH 6.0 with ammonium hydroxide (Pump A) and 20% methanol (Pump B). At 10 minutes, a linear gradient is established. to reach 100 percent methanol (Pump B) at 27 minutes. Between 27 and 28 minutes, methanol is exchanged for the initial eluting solvent and by 35 minutes the column is reequilibrated for the next sample. The effluent is analyzed by a continuous flow radioactivity monitor (model ROMONA-D) interfaced with a Hewlett Packard Lab Automation System for quantitation of radioactive products. This includes the major 5-lipoxygenase product, 5-hydroxyeicosatetraenoic acid (5-HETE) which elutes at 20 minutes. The results with and without test compound are used to calculate percent inhibition of 5-HETE production.

[5] = target: T2, cyclooxygenase (Homo sapiens, UniProt P23219); assay: Cyclooxygenase Assay with Human Platelets, HHT production; assay type: cell-based; conditions: for % inhibition of HHT production in human platelets at 50 µM / % inhibition of HHT production in human platelets at 15 µM: read-out: PMN Assay % Inhibition HHT
T2 construct: Cyclooxygenase Assay with Human Platelets; endogenous in cells; host or cells: human blood platelets from healthy volunteers
T2 sequence (P23219 24-599): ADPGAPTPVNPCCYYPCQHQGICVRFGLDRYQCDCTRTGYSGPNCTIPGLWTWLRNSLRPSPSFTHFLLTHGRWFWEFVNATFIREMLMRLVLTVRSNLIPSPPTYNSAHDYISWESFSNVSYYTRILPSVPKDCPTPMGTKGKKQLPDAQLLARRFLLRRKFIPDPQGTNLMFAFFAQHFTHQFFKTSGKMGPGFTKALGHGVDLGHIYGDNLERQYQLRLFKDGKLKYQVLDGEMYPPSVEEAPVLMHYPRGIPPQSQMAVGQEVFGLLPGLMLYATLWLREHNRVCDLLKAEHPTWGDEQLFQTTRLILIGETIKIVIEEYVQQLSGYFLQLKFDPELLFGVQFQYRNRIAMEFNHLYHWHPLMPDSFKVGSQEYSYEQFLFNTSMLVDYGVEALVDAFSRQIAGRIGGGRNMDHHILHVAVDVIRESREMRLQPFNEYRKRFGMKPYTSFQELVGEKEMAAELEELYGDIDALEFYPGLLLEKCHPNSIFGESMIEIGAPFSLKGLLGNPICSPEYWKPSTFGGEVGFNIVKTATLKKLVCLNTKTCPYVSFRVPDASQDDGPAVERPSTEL
Description: Cyclooxygenase Assay with Human Platelets
Blood is collected in acid-citrate-dextrose anticoagulant by venipuncture from normal healthy volunteers who said that they were not on any medication for the previous two weeks. Platelets are isolated by the procedure of Okuma and Uchino (Blood 54:1258-1271 (1979)). In brief, blood is centrifuged at 4° C. at 200×g for 10 minutes to sediment red and white cells. The platelet rich plasma (PRP) supernatant is removed and mixed with one-tenth volume of 77 mM EDTA, pH 7.2 and prostacyclin sodium salt is added to the PRP at a final concentration of 1 nanogram per milliliter(ng/mL). The PRP is centrifuged at 1700×g, 4° C. for 15 minutes. The platelet pellet is resuspended in the HEPES buffer described in the 5-lipoxygenase section above which additionally contained 1 ng/mL prostacyclin and 0.5 mM ethylene glycolbis(B-aminoethyl ether) N,N,N',N'-tetraacetic acid (EGTA) and the suspension is recentrifuged at 1,700×g, 4° C. for 15 minutes. The pellet is resuspended in HEPES buffer containing 0.5 mM EGTA and 1.5 mM CaCl2 at a cell count of 200,000 cells/ul. Platelets (0.2 ml of suspension) are preincubated with test compounds and the ^14 C-arachidonic acid plus the calcium ionophore A23187 stimulant exactly as described for the 5-lipoxygenase assay. The cyclooxygenase product 12-hydroxyheptadecatrienoic acid (HHT) is isolated and quantitated by the HPLC system used for the 5-lipoxygenaseassay. HHT elutes from this system at about eleven minutes. Results are expressed as percent inhibition of HHT production by the test compounds versus the test vehicle alone.

[6] = read-out: RPAR-Pleural Cavity % Inhibition cells
[7] = read-out: RPAR-Pleural Cavity % Inhibition fluid

CC1(C)C(=O)N(c2ccccc2)c2ncccc21 [Compound 1, 1,3-dihydro-3,3-dimethyl-1-phenyl-2H-pyrrolo[2,3-b]pyridin-2-one]
inhibition in vivo at 40 mg/kg [1, 6]: 70% | inhibition in vivo at 40 mg/kg [1, 7]: 60% | RPAR-Pleural Cavity % Inhibition LTE-4 ([2]; dose 40 mpk): 54% | RPAR-Pleural Cavity % Inhibition TXB-2 ([3]; dose 40 mpk): 54%

CC1(C)C(=O)N(c2ccc(Cl)cc2)c2ncccc21 [Compound 2, 1-(4-chlorophenyl)-1,3-dihydro-3,3-dimethyl-2H-pyrrolo[2,3-b]pyridin-2-one]
inhibition in vivo at 25 mg/kg [1, 6]: 73% | inhibition in vivo at 25 mg/kg [1, 7]: 83% | RPAR-Pleural Cavity % Inhibition LTE-4 ([2]; dose 25 mpk): 87% | RPAR-Pleural Cavity % Inhibition TXB-2 ([3]; dose 25 mpk): 78%

O=C1C([S+]([O-])c2ccccc2)c2cccnc2N1c1cccc(C(F)(F)F)c1 (stereo not drawn) [Compound 13, 1,3-dihydro-3-(phenylsulfinyl)-1-(3-trifluoromethylphenyl)-2H-pyrrolo[2,3-b]pyridin-2-one]
inhibition at 50 µM [4]: 82% | % inhibition of HHT production in human platelets at 50 µM [5]: 44%

CC(C)N1C(=O)C(Sc2ccccc2)c2cccnc21 (stereo not drawn) [Compound 14, 1,3-dihydro-1-(methylethyl)-3-(phenylthio)-2H-pyrrolo[2,3-b]pyridin-2-one]
inhibition at 50 µM [4]: 63% | % inhibition of HHT production in human platelets at 50 µM [5]: 17%

CC1(Sc2ccccc2)C(=O)N(c2ccccc2)c2ncccc21 (stereo not drawn) [Compound 16, 1,3-dihydro-3-methyl-1-phenyl-3-(phenylthio)-2H-pyrrolo[2,3-b]pyridin-2-one]
inhibition at 50 µM [4]: 68% | % inhibition of HHT production in human platelets at 50 µM [5]: 2%

CN1C(=O)C(Sc2ccccc2)c2cccnc21 (stereo not drawn) [Compound 17, 1,3-dihydro-1-methyl-3-(phenylthio)-2H-pyrrolo[2,3-b]pyridin-2-one]
inhibition at 50 µM [4]: 63% | % inhibition of HHT production in human platelets at 50 µM [5]: 21%

Cc1c(Cl)cccc1N1C(=O)C(Sc2ccccc2)c2cccnc21 (stereo not drawn) [Compound 18, 1,3-dihydro-1-(3-chloro-2-methylphenyl)-3-(phenylthio)-2H-pyrrolo[2,3-b]pyridin-2-one]
inhibition at 50 µM [4]: 86% | % inhibition of HHT production in human platelets at 50 µM [5]: 64%

O=C1C(Sc2ccc(Cl)cc2)c2cccnc2N1c1ccccc1 (stereo not drawn) [Compound 19, 1,3-dihydro-3-(4-chlorophenylthio)-1-phenyl-2H-pyrrolo[2,3-b]pyridin-2-one]
inhibition at 50 µM [4]: 91% | % inhibition of HHT production in human platelets at 50 µM [5]: 71%

O=C1C(Sc2ccccc2Cl)c2cccnc2N1c1ccccc1 (stereo not drawn) [Compound 20, 1,3-dihydro-3-(2-chlorophenylthio)-1-phenyl-2H-pyrrolo[2,3-b]pyridin-2-one]
inhibition at 50 µM [4]: 90% | % inhibition of HHT production in human platelets at 50 µM [5]: 80%

COc1ccccc1SC1C(=O)N(c2ccccc2)c2ncccc21 (stereo not drawn) [Compound 22, 1,3-dihydro-3-(2-methoxyphenylthio)-1-phenyl-2H-pyrrolo[2,3-b]pyridin-2-one]
inhibition at 50 µM [4]: 84% | % inhibition of HHT production in human platelets at 50 µM [5]: 31%

O=C1N(Cc2ccccc2)c2ncccc2C1(Sc1ccccc1)Sc1ccccc1 [Compound 26, 1,3-dihydro-3,3-(diphenylthio)-1-(phenylmethyl)-2H-pyrrolo[2,3-b]pyridin-2-one]
inhibition at 15 µM ([4]; 15 μM): 96% | % inhibition of HHT production in human platelets at 15 µM ([5]; 15 μM): 11%

CC(=O)OCCSC1(C(C)=O)C(=O)N(c2ccccc2)c2ncccc21 (stereo not drawn) [Compound 28, 1,3-dihydro-3-[2-(acetoxy)-ethylthio)-3-(1-oxoethyl)-1-phenyl-2H-pyrrolo[2,3-b]pyridin-2-one]
PMN Assay % Inhibition 5-HETE ([4]; 15 μM): 96% | inhibition at 15 µM ([4]; 15 μM): 80% | % inhibition of HHT production in human platelets ([5]; 15 μM): 29% | % inhibition of HHT production in human platelets at 15 µM ([5]; 15 μM): 35%

O=C1C(Sc2ccccc2)c2cccnc2N1c1cccc(Cl)c1 (stereo not drawn) [Compound 33, 1,3-dihydro-1-(3-chlorophenyl)-3-(phenylthio)-2H-pyrrolo]
inhibition at 15 µM ([4]; 15 μM): 87% | % inhibition of HHT production in human platelets at 15 µM ([5]; 15 μM): 52%

O=C1C(Sc2ccccc2)c2cccnc2N1c1ccc(Cl)c(Cl)c1 (stereo not drawn) [Compound 34, 1,3-dihydro-1-(3,4-dichlorophenyl)-3-(phenylthio)[2,3-b]pyridin-2-one]
inhibition at 15 µM ([4]; 15 μM): 99% | % inhibition of HHT production in human platelets at 15 µM ([5]; 15 μM): 54%

COc1c(Sc2ccccc2)c2cccnc2n1-c1ccccc1 [Compound 35, 2-methoxy-1-phenyl-3-(phenylthio)-1H-pyrrolo[2,3-b]pyridine]
inhibition of 5-HETE in the PMN assay ([4]; concentration not given): 80% | % inhibition of HHT production in human platelets ([5]; concentration not given): 55%
